The numbers were not newly measured in patent US11564888B2, “Extended release compositions comprising trihexyphenidyl” (KASHIV SPECIALTY PHARMACEUTICALS, LLC, priority 2018, dated 2023), which cites them from elsewhere.

For the data set the following is noted: in vivo.

Turning to `OC(CCN1CCCCC1)(c1ccccc1)C1CCCCC1` (stereo not drawn) [trihexyphenidyl, α-cyclohexyl-α-phenyl-1-piperidinepropanol], the plasma half-life entry was “about 3.7 hours”.
